The test system of one assay is Staphylococcus aureus. The assay can be described thus: MIC, CLSI broth microdilution in CAMHB. Conditions: ATCC29213, S. aureus (ATCC 29213). Format: cell-based. The procedure:
(§1) The bacterial strains tested included CLSI and NCTC reference and quality control (QC) strains from the following organism groups: Acinetobacter baumannii, Enterococcus faecalis, Escherichia coli, Klebsiella pneumoniae, Pseudomonas aeruginosa, and Staphylococcus aureus. Some strains contained molecularly characterized β-lactamase genes including carbapenemase (KPC-2) and extended-spectrum β-lactamase (SHV-18) genes.
(§2) Isolates were tested for antimicrobial susceptibility using broth microdilution methodology according to CLSI M07 (2018) and M100 (2023) guidelines. Frozen-form, 96-well MIC panels were produced. The testing medium was cation-adjusted Mueller-Hinton broth (CAMHB). Single MIC values were measured for 8 test compounds against each of the 9 strains tested. Additional MIC values were generated for levofloxacin (comparator agent) against several of the QC strains.
(§3) Compound stock solutions were prepared and allowed to mix overnight as needed. The pH of each stock solution was checked and adjusted as necessary until a minimum pH of 5.0 was achieved (pH range 5.0-7.0). Some compound stock solutions also required the addition of heat to assist in solubilization.
(§4) Current CLSI quality assurance practices were followed when performing the broth microdilution susceptibility testing. MIC values were validated by concurrently testing a control agent (levofloxacin) against CLSI-recommended QC strains including S. aureus ATCC 29213 (methicillin susceptible), E. coli ATCC 25922, Enterococcus faecalis ATCC 29212, and P. aeruginosa ATCC 27853. The initial inoculum density (target, 5×10^5 CFU/mL) during susceptibility testing was monitored by bacterial colony counts.
(Dilution methods test growth across graded concentrations, often in twofold steps.)

In a further assay the test system is Pseudomonas aeruginosa. In words: MIC, CLSI broth microdilution in CAMHB. In kind it is cell-based. Conditions: ATCC27853, P. aeruginosa (ATCC 27853). The procedure: as §1, §2, §3, §4
In another assay the test system is Klebsiella pneumoniae. The assay can be described thus: MIC, CLSI broth microdilution in CAMHB. In kind it is cell-based. The procedure: as §1, §2, §3, §4
Another assay concerns Enterococcus faecalis. In words: MIC, CLSI broth microdilution in CAMHB. Format: cell-based. The procedure: as §1, §2, §3, §4
A further assay deals with Escherichia coli. In words: MIC, CLSI broth microdilution in CAMHB. In kind it is cell-based. The procedure:
as §1, §2, §3, §4

For a further assay, the system named is Acinetobacter baumannii. The assay can be described thus: MIC, CLSI broth microdilution in CAMHB. In kind it is cell-based. Conditions: NCTC13304, A. baumannii (NCTC 13304). The procedure:
as §1, §2, §3, §4

The test system of assay [1] is Klebsiella pneumoniae KL1. The assay can be described thus: MBC, spot plating after 24 h in MH broth. Conditions: F = Klebisella pneumoniae KL1.
Procedure: (§5) To determine MBC compound concentrations breakpoints were estimated from MIC curves. Overnight cultures were set up as described above for all bacterial strains. The following day overnight cultures were adjusted to give a cell density of 5×10^5 cells per mL. Briefly, cultures were adjusted to the McFarland standard (0.08-0.12) and diluted (1:150). Adjusted cultures were inoculated into 96 well plates with 50 μL sterile Muller-Hinton broth (MHB) and 2 concentrations of each compound. […] MBC cultures were quantified by serial dilution in a 96 well plate and spot plating onto Muller-Hinton agar (MHA). MHA plates were incubated at 37° C. for 24 h and counted. Results are presented as CFU per mL.
(§6) To determine MBC compound concentrations, breakpoints were estimated from MIC curves. Overnight cultures were set up as described above for all bacterial strains. The following day overnight cultures were adjusted to give a cell density of 5×10^5 cells per mL. Briefly, cultures were adjusted to the McFarland standard (0.08-0.12) and diluted (1:150). Adjusted cultures were inoculated into 96 well plates with 50 μL sterile Muller-Hinton broth (MHB) and 2 concentrations of each compound. […] MBC cultures were quantified by serial dilution in a 96 well plate and spot plating onto Muller-Hinton agar (MHA). MHA plates were incubated at 37° C. for 24 hours and counted. […]
The subject of assay [2] is Staphylococcus aureus MR1. The assay can be described thus: MBC, spot plating after 24 h in MH broth. Particulars: B = Staphylococcus aureus MR1.
Procedure: as §5
(§7) To determine MBC compound concentrations, breakpoints were estimated from MIC curves. Overnight cultures were set up as described above for all bacterial strains. The following day overnight cultures were adjusted to give a cell density of 5×10^5 cells per mL. Briefly, cultures were adjusted to the McFarland standard (0.08-0.12) and diluted (1:150). Adjusted cultures were inoculated into 96 well plates with 50 μL sterile Muller-Hinton broth (MHB) and 2 concentrations of each compound. […] MBC cultures were quantified by serial dilution in a 96 well plate and spot plating onto Muller-Hinton agar (MHA). MHA plates were incubated at 37° C. for 24 hours and counted.
(§8) These compounds were tested for their MBC against a panel of ATCC and nosocomial bacteria.
Assay [3] concerns Staphylococcus aureus NRS384. In words: MBC, spot plating after 24 h in MH broth. Conditions: C = Staphylococcus aureus NRS384.
Procedure: as §5, §6
The subject of the next assay is Escherichia coli EC25922. The assay can be described thus: MBC, spot plating after 24 h in MH broth. Particulars: H = Escherichia coli EC25922.
The subject of assay [4] is Enterococcus faecalis EF51299. In words: MBC, spot plating after 24 h in MH broth. Conditions: D = Enterococcus faecalis EF51299.
Procedure: as §5, §6
The subject of assay [5] is Enterococcus faecalis EF19433. In words: MBC, spot plating after 24 h in MH broth. Conditions: E = Enterococcus faecalis EF19433.
Procedure: as §5, §7, §8
For assay [6], the system named is Staphylococcus aureus ATCC 29213. The assay can be described thus: MBC, spot plating after 24 h in MH broth. Conditions: A = Staphylococcus aureus 29213.
Procedure: as §5, §7, §8
In assay [7] the test system is Pseudomonas aeruginosa 27853. The assay can be described thus: MBC, spot plating after 24 h in MH broth. Conditions: G = Pseudomonas aeruginosa 27853.
Procedure: as §5, §6

Molecules are shown by their SMILES. Values after ≈ are worked out from the molar mass of the structure shown.

Procedure for Escherichia coli EC25922: as §5, §7, §8

Regarding `C[C@H]1COc2c(N3CCN(C)CC3)c(F)cc3c(=O)c(C(=O)O)cn1c23` [levofloxacin], the minimum inhibitory concentration (MIC) (as a rule, the lowest concentration found to suppress growth) is 0.12 µg/mL (≈ 0.332 µM) in the assay with Staphylococcus aureus; 1 µg/mL (≈ 2.77 µM) with Pseudomonas aeruginosa; 0.5 µg/mL (≈ 1.38 µM) in the assay with Klebsiella pneumoniae (ATCC700603, K. pneumoniae (ATCC 700603)); greater than 8 µg/mL against Klebsiella pneumoniae (BAA1705, K. pneumoniae (ATCC BAA 1705)); 1 µg/mL (≈ 2.77 µM) against Enterococcus faecalis (ATCC29212, E. faecalis (ATCC 29212)); 0.5 µg/mL (≈ 1.38 µM) with Enterococcus faecalis (ATCC51299, E. faecalis (ATCC 51299)). For the same compound, the MIC in the assay with Escherichia coli (ATCC25922, E. coli (ATCC 25922)) came to 0.015 µg/mL (≈ 0.0415 µM); in the assay with Escherichia coli (ATCCBAA2452, E. coli (ATCC BAA-2452)) it was 0.03 µg/mL (≈ 0.083 µM); in the assay on Acinetobacter baumannii, 4 µg/mL (≈ 11.1 µM).

On to `CN[C@H](CC(C)C)C(=O)N[C@H]1C(=O)N[C@@H](CC(N)=O)C(=O)N[C@H]2C(=O)N[C@H]3C(=O)N[C@H](C(=O)N[C@H](C(=O)O)c4cc(O)cc(O)c4-c4cc3ccc4O)[C@H](O)c3ccc(c(Cl)c3)Oc3cc2cc(c3O[C@@H]2O[C@H](CO)[C@@H](O)[C@H](O)[C@H]2O[C@H]2C[C@](C)(N)[C@H](O)[C@H](C)O2)Oc2ccc(cc2Cl)[C@H]1O` [Van], for which the “MBC Concentration” value turned out to be 1.25 µM (≈ 1.81 µg/mL) in assay [1]; 0.02 µM (≈ 0.029 µg/mL) in [2]; 0.02 µM (≈ 0.029 µg/mL) in assay [3]; 0.31 µM (≈ 0.449 µg/mL) with Escherichia coli EC25922; 0.04 µM (≈ 0.058 µg/mL) in [4]; 0.08 µM (≈ 0.116 µg/mL) in [5]. The entries for the “MBC Concentration” value in [6] and in assay [7] were 0.02 µM (≈ 0.029 µg/mL) and 2.50 µM (≈ 3.62 µg/mL), respectively.
